According to ChEMBL document CHEMBL5537113, “Discovery of 1,2-diaryl-3-oxopyrazolidin-4-carboxamides as a new class of MurA enzyme inhibitors and characterization of their antibacterial activity” (Eur J Med Chem, 2023):
Active and inactive are the calls of the source. The rule behind the calls is not given here.

Legend:
Escherichia coli = test: Antibacterial activity against Escherichia coli harboring tolC deletion mutant assessed as reduction in microbial growth incubated for 16 hrs by serial dilution method; format: functional
[1] = target: UDP-N-acetylglucosamine 1-carboxyvinyltransferase (Escherichia coli K-12) (UniProt P0A749); test: Inhibition of Escherichia coli K12 His-tagged MurA expressed in Escherichia coli BL21 cells at 50 uM using UNAG as substrate pre incubated for 15 mins followed by substrate addition and measured after 15 mins by microplate reader analysis relative to control; conditions: time 30.0 min
Chain of UDP-N-acetylglucosamine 1-carboxyvinyltransferase (Escherichia coli K-12) (P0A749 whole entry): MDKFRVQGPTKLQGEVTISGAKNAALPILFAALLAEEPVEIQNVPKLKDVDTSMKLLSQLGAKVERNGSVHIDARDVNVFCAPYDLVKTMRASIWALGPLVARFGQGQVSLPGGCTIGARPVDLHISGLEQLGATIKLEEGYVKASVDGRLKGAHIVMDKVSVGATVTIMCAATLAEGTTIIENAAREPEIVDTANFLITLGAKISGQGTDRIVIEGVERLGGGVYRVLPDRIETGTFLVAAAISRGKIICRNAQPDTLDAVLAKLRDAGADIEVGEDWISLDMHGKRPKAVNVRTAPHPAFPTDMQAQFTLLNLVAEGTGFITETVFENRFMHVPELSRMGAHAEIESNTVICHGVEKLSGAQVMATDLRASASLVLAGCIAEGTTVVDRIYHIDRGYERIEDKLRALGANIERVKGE

[2] = target: UDP-N-acetylglucosamine 1-carboxyvinyltransferase (Escherichia coli K-12, UniProt P0A749); test: Inhibition of Escherichia coli K12 His-tagged MurA expressed in Escherichia coli BL21 cells using UNAG as substrate pre incubated for 15 mins followed by substrate addition and measured after 15 mins by microplate reader analysis
Chain of UDP-N-acetylglucosamine 1-carboxyvinyltransferase (Escherichia coli K-12, UniProt P0A749) (P0A749 whole entry): as above

[3] = test system: UDP-N-acetylglucosamine 1-carboxyvinyltransferase (Escherichia coli K-12), P0A749 [C115D]; test: Inhibition of Escherichia coli MurA C115D mutant using UNAG as substrate pre incubated for 15 mins followed by substrate addition and measured after 15 mins by microplate reader analysis; conditions: time 30.0 min
Chain of UDP-N-acetylglucosamine 1-carboxyvinyltransferase (Escherichia coli K-12), P0A749 [C115D] (P0A749 whole entry C115D): as the sequence (P0A749 whole entry) above, with C115D counted along it

[4] = target: UDP-N-acetylglucosamine 1-carboxyvinyltransferase (Escherichia coli K-12, UniProt P0A749, C115D); test: Inhibition of Escherichia coli MurA C115D mutant at 50 uM using UNAG as substrate pre incubated for 15 mins followed by substrate addition and measured after 15 mins by microplate reader analysis relative to control
Chain of UDP-N-acetylglucosamine 1-carboxyvinyltransferase (Escherichia coli K-12, UniProt P0A749, C115D) (P0A749 whole entry C115D): as the sequence (P0A749 whole entry) above, with C115D counted along it

[5] = Drug uptake in Escherichia coli harboring tolC deletion mutant at 10 uM incubated for 30 mins by LC analysis; format: ADME; conditions: 0.5 h
[6] = Drug uptake in Escherichia coli harboring tolC deletion mutant assessed per 1.6x10^9 cells at 10 uM incubated for 30 mins by LC analysis; format: ADME; conditions: 0.5 h
Staphylococcus aureus [7] = test: Antibacterial activity against Staphylococcus aureus Newman D2C NCTC 10833 assessed as reduction in microbial growth incubated for 16 hrs by serial dilution method; format: functional
Bacteria = test: Binding affinity to wild type U15-N labelled MurA (unknown origin) expressed in Escherichia coli at 200 uM using UNAG as substrate incubated for 90 to 150 mins by 15N-1H-HSQC NMR analysis; conditions: time 90-150 min
Staphylococcus aureus [8] = test: Antibacterial activity against vancomycin resistant Staphylococcus aureus 10 assessed as reduction in microbial growth by CLSI based broth microdilution method; format: functional
Streptococcus pneumoniae = test: Antibacterial activity against Streptococcus pneumoniae ATCC 700677 assessed as reduction in microbial growth by CLSI based broth microdilution method; format: functional
Clostridioides difficile [9] = test: Antibacterial activity against Clostridioides difficile ATCC BAA1870 assessed as reduction in microbial growth incubated for 48 hrs by broth microdilution method; format: functional
Clostridioides difficile [10] = test: Antibacterial activity against Clostridioides difficile NR-32895 assessed as reduction in microbial growth incubated for 48 hrs by broth microdilution method; format: functional
Clostridioides difficile [11] = test: Antibacterial activity against Clostridioides difficile NR-32889 assessed as reduction in microbial growth incubated for 48 hrs by broth microdilution method; format: functional
Clostridioides difficile [12] = test: Antibacterial activity against Clostridioides difficile NR-32903 assessed as reduction in microbial growth incubated for 48 hrs by broth microdilution method; format: functional
Clostridioides difficile [13] = test: Antibacterial activity against Clostridioides difficile NR-32904 assessed as reduction in microbial growth incubated for 48 hrs by broth microdilution method; format: functional
Clostridioides difficile [14] = test: Antibacterial activity against Clostridioides difficile NR-13427 assessed as reduction in microbial growth incubated for 48 hrs by broth microdilution method; format: functional
Clostridioides difficile [15] = test: Antibacterial activity against Clostridioides difficile NR-13436 assessed as reduction in microbial growth incubated for 48 hrs by broth microdilution method; format: functional
Clostridioides difficile [16] = test: Antibacterial activity against Clostridioides difficile NR-49277 assessed as reduction in microbial growth incubated for 48 hrs by broth microdilution method; format: functional
Clostridioides difficile [17] = test: Antibacterial activity against Clostridioides difficile NR-49278 assessed as reduction in microbial growth incubated for 48 hrs by broth microdilution method; format: functional
Clostridioides difficile [18] = test: Antibacterial activity against Clostridioides difficile NR-49279 assessed as reduction in microbial growth incubated for 48 hrs by broth microdilution method; format: functional
Clostridioides difficile [19] = test: Antibacterial activity against Clostridioides difficile NR-49282 assessed as reduction in microbial growth incubated for 48 hrs by broth microdilution method; format: functional
Clostridioides difficile [20] = test: Antibacterial activity against Clostridioides difficile NR-49283 assessed as reduction in microbial growth incubated for 48 hrs by broth microdilution method; format: functional
Clostridioides difficile [21] = test: Antibacterial activity against Clostridioides difficile NR-49284 assessed as reduction in microbial growth incubated for 48 hrs by broth microdilution method; format: functional
Clostridioides difficile [22] = test: Antibacterial activity against Clostridioides difficile NR-49285 assessed as reduction in microbial growth incubated for 48 hrs by broth microdilution method; format: functional
Clostridioides difficile [23] = test: Antibacterial activity against Clostridioides difficile NR-49286 assessed as reduction in microbial growth incubated for 48 hrs by broth microdilution method; format: functional
Clostridioides difficile [24] = test: Antibacterial activity against Clostridioides difficile NR-49287 assessed as reduction in microbial growth incubated for 48 hrs by broth microdilution method; format: functional
Clostridioides difficile [25] = test: Antibacterial activity against Clostridioides difficile NR-49288 assessed as reduction in microbial growth incubated for 48 hrs by broth microdilution method; format: functional
Clostridioides difficile [26] = test: Antibacterial activity against Clostridioides difficile NR-49291 assessed as reduction in microbial growth incubated for 48 hrs by broth microdilution method; format: functional
Clostridioides difficile [27] = test: Antibacterial activity against Clostridioides difficile NR-49294 assessed as reduction in microbial growth incubated for 48 hrs by broth microdilution method; format: functional
Clostridioides difficile [28] = test: Antibacterial activity against Clostridioides difficile ATCC 43255 assessed as reduction in microbial growth incubated for 48 hrs by broth microdilution method; format: functional
Clostridioides difficile [29] = test: Antibacterial activity against Clostridioides difficile HM-88 assessed as reduction in microbial growth incubated for 48 hrs by broth microdilution method; format: functional
Clostridioides difficile [30] = test: Bactericidal activity against Clostridioides difficile NR-32895 assessed as reduction in microbial growth by broth microdilution method; format: functional
Clostridioides difficile [31] = test: Bactericidal activity against Clostridioides difficile NR-32904 assessed as reduction in microbial growth by broth microdilution method; format: functional
Clostridioides difficile [32] = test: Bactericidal activity against Clostridioides difficile NR-49278 assessed as reduction in microbial growth by broth microdilution method; format: functional
Clostridioides difficile [33] = test: Bactericidal activity against Clostridioides difficile NR-49284 assessed as reduction in microbial growth by broth microdilution method; format: functional
Clostridioides difficile [34] = test: Bactericidal activity against Clostridioides difficile ATCC BAA1870 assessed as reduction in microbial growth by broth microdilution method; format: functional
Clostridioides difficile [35] = test: Bactericidal activity against Clostridioides difficile ATCC 43255 assessed as reduction in microbial growth by broth microdilution method; format: functional
Bacteroides fragilis [36] = test: Antibacterial activity against Bacteroides fragilis HM 20 assessed as reduction in microbial growth incubated for 48 hrs by broth microdilution method; format: functional
Bacteroides fragilis [37] = test: Antibacterial activity against Bacteroides fragilis HM 709 assessed as reduction in microbial growth incubated for 48 hrs by broth microdilution method; format: functional
Bacteroides fragilis [38] = test: Antibacterial activity against Bacteroides fragilis HM 718 assessed as reduction in microbial growth incubated for 48 hrs by broth microdilution method; format: functional
Bacteroides fragilis [39] = test: Antibacterial activity against Bacteroides fragilis HM 719 assessed as reduction in microbial growth incubated for 48 hrs by broth microdilution method; format: functional
Bifidobacterium breve [40] = test: Antibacterial activity against Bifidobacterium breve HM 412 assessed as reduction in microbial growth incubated for 48 hrs by broth microdilution method; format: functional
Bifidobacterium longum = test: Antibacterial activity against Bifidobacterium longum HM 846 assessed as reduction in microbial growth incubated for 48 hrs by broth microdilution method; format: functional
[41] = test system: Bifidobacterium angulatum; test: Antibacterial activity against Bifidobacterium angulatum HM 1189 assessed as reduction in microbial growth incubated for 48 hrs by broth microdilution method; format: functional
Bifidobacterium breve [42] = test: Antibacterial activity against Bifidobacterium breve HM1120 assessed as reduction in microbial growth incubated for 48 hrs by broth microdilution method; format: functional
Lactobacillus gasseri [43] = test: Antibacterial activity against Lactobacillus gasseri HM 403 assessed as reduction in microbial growth incubated for 48 hrs by broth microdilution method; format: functional
Lactobacillus gasseri [44] = test: Antibacterial activity against Lactobacillus gasseri HM 407 assessed as reduction in microbial growth incubated for 48 hrs by broth microdilution method; format: functional
Lactobacillus crispatus [45] = test: Antibacterial activity against Lactobacillus crispatus HM 103 assessed as reduction in microbial growth incubated for 48 hrs by broth microdilution method; format: functional
Lactobacillus crispatus [46] = test: Antibacterial activity against Lactobacillus crispatus HM 420 assessed as reduction in microbial growth incubated for 48 hrs by broth microdilution method; format: functional

## O=C1NC(=O)c2cc(NC(=O)C3CN(c4cccc(Cl)c4)N(c4cccc(Cl)c4)C3=O)ccc21 (stereo not drawn)
Escherichia coli
  MIC: 17 µM
[1]
  inhibition: 81.6%
[2]
  IC50: 11.3 µM
[3]
  inhibition: 74%
[4]
  IC50: 12.7 µM
[5]
  Drug uptake: 924 nM
[6]
  Drug uptake: 30 µM
Staphylococcus aureus [7]
  MIC: > 40 µM
Bacteria
  Activity: Active

## CN[C@H](CC(C)C)C(=O)N[C@H]1C(=O)N[C@@H](CC(N)=O)C(=O)N[C@H]2C(=O)N[C@H]3C(=O)N[C@H](C(=O)N[C@H](C(=O)O)c4cc(O)cc(O)c4-c4cc3ccc4O)[C@H](O)c3ccc(c(Cl)c3)Oc3cc2cc(c3O[C@@H]2O[C@H](CO)[C@@H](O)[C@H](O)[C@H]2O[C@H]2C[C@](C)(N)[C@H](O)[C@H](C)O2)Oc2ccc(cc2Cl)[C@H]1O [VANCOMYCIN]
Staphylococcus aureus [8]
  MIC: 32 µg/mL
Streptococcus pneumoniae
  MIC: 2 µg/mL
Clostridioides difficile [9]
  MIC: 1 µg/mL
Clostridioides difficile [10]
  MIC: 2 µg/mL
Clostridioides difficile [11]
  MIC: 2 µg/mL
Clostridioides difficile [12]
  MIC: 0.5 µg/mL
Clostridioides difficile [13]
  MIC: 0.5 µg/mL
Clostridioides difficile [14]
  MIC: 2 µg/mL
Clostridioides difficile [15]
  MIC: 0.5 µg/mL
Clostridioides difficile [16]
  MIC: 0.5 µg/mL
Clostridioides difficile [17]
  MIC: 0.5 µg/mL
Clostridioides difficile [18]
  MIC: 0.25 µg/mL
Clostridioides difficile [19]
  MIC: 0.25 µg/mL
Clostridioides difficile [20]
  MIC: 0.5 µg/mL
Clostridioides difficile [21]
  MIC: 0.5 µg/mL
Clostridioides difficile [22]
  MIC: 0.5 µg/mL
Clostridioides difficile [23]
  MIC: 0.25 µg/mL
Clostridioides difficile [24]
  MIC: 1 µg/mL
Clostridioides difficile [25]
  MIC: 0.5 µg/mL
Clostridioides difficile [26]
  MIC: 0.5 µg/mL
Clostridioides difficile [27]
  MIC: 0.25 µg/mL
Clostridioides difficile [28]
  MIC: 0.5 µg/mL
Clostridioides difficile [29]
  MIC: 0.5 µg/mL
Clostridioides difficile [30]
  MBC: 2 µg/mL
Clostridioides difficile [31]
  MBC: 0.5 µg/mL
Clostridioides difficile [32]
  MBC: 0.5 µg/mL
Clostridioides difficile [33]
  MBC: 0.5 µg/mL
Clostridioides difficile [34]
  MBC: 2 µg/mL
Clostridioides difficile [35]
  MBC: 1 µg/mL
Bacteroides fragilis [36]
  MIC: 64 µg/mL
Bacteroides fragilis [37]
  MIC: 64 µg/mL
Bacteroides fragilis [38]
  MIC: > 64 µg/mL
Bacteroides fragilis [39]
  MIC: > 64 µg/mL
Bifidobacterium breve [40]
  MIC: 1 µg/mL
Bifidobacterium longum
  MIC: 0.5 µg/mL
[41]
  MIC: 1 µg/mL
Bifidobacterium breve [42]
  MIC: 1 µg/mL
Lactobacillus gasseri [43]
  MIC: 2 µg/mL
Lactobacillus gasseri [44]
  MIC: 4 µg/mL
Lactobacillus crispatus [45]
  MIC: 1 µg/mL
Lactobacillus crispatus [46]
  MIC: 1 µg/mL

## O=C(Nc1ccc(-c2cn[nH]c2)cc1)C1CN(c2cccc(Cl)c2)N(c2cccc(Cl)c2)C1=O (stereo not drawn)
Escherichia coli
  MIC: > 40 µM
[1]
  inhibition: 76.5%
[2]
  IC50: 12.2 µM
[3]
  inhibition: 77.2%
[4]
  IC50: 12.4 µM
[5]
  Drug uptake: 348 nM
[6]
  Drug uptake: 11 µM
Staphylococcus aureus [7]
  MIC: > 40 µM
